What all share (assay): growth of human tumour cells (NCI), 48 h
The test system of assay [1] is KM12 colon.
Assay [2] has as its system MALME-3M melanoma.
In assay [3] the test system is MDA-MB-435.
The subject of assay [4] is SN12C renal.
Assay [5] deals with SR leukemia.

TGI data for 24 compounds are collected here from PubChem BioAssay (NCI).

Structures are written as SMILES.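 Cells were grown in 96-well plates and exposed to each compound for 48 hours at five concentrations; endpoints were interpolated linearly between bracketing concentrations, or set to the highest concentration if not reached. At the TGI there is no net growth.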

As for `Cc1cccc(NC(=S)N/N=C(/c2ccccc2)c2ccccn2)c1`, the TGI turned out to be 13.8 µM in assay [1]; 12.6 µM in assay [2]; 17.6 µM in assay [3]; 12.4 µM in assay [4]; 7.13 µM in assay [5].
Turning to `CCN(CC)C1=Nc2ccccc2-n2c(C)cnc2C1`, the TGI in assay [1], in assay [2], in assay [3] and in assay [4] was over 100 µM in each case.
For `CCOP(C)(=O)C(Nc1ccc(F)cc1)c1ccc(F)cc1` (centres undefined), the TGI in assay [1], in assay [2], in assay [3], in assay [4] and in assay [5] was over 100 µM each time.
As for `CC(C)=CCC[C@H](C)[C@H]1CC[C@@H](C)c2cc(O)c(C)cc21`, the TGI in assay [1] is 37.5 µM; in assay [2] it was 33.4 µM; in assay [3], 38.8 µM; in assay [4], 29.8 µM.
Turning to `CC1(C)OC(=S)N(c2ccccc2)C12C=Cc1cc3ccccc3cc1O2` (centres undefined), the TGI in assay [1], in assay [3], in assay [4] and in assay [5] was over 100 µM each time.
Turning to `Cn1cnc([N+](=O)[O-])c1Sc1nc(N)nc2c1ncn2Cc1ccccc1`, the TGI is over 100 µM in assay [1]; 30.8 µM in assay [2]; 72.4 µM in assay [3]; 37.3 µM in assay [4]; over 100 µM in assay [5].
For `Cc1ccc(C)c(NC(=O)C(Cc2c[nH]c3ccccc23)NC(=O)OCc2ccccc2)c1` (centres undefined), the TGI in assay [1] is 69.7 µM; in assay [2], 98.9 µM; in assay [3], over 100 µM; in assay [4], over 100 µM; in assay [5], 48.2 µM.
On to `CC1Cc2cc(O)ccc2C2[C@@H]1C1CC[C@H](O)[C@@]1(C)C[C@@H]2O[N+](=O)[O-]` (some centres undefined), for which the TGI is over 79.1 µM in assay [1]; over 79.6 µM in assay [2]; 16.9 µM in assay [3]; over 94.4 µM in assay [4]; over 56.8 µM in assay [5].
As to `CCN(CC)c1nc(N(C)C)c2cc(OC)ccc2n1`, the TGI was over 100 µM in assay [1]; 62 µM in assay [2]; over 100 µM in assay [3]; 89.3 µM in assay [4]; 76.9 µM in assay [5].
Turning to `Cc1nc2c(ncn2CCO)c(=O)[nH]1`, the TGI in assay [1], in assay [2], in assay [3], in assay [4] and in assay [5] was over 100 µM in each case.
In the case of `O=C1NN(c2ccccc2)C(=O)C2C3c4ccccc4C(c4ccccc43)C12` (centres undefined), the TGI in assay [1], in assay [2], in assay [3], in assay [4] and in assay [5] was over 100 µM each time.
For `CC(=O)OC1COC(Nn2c(=O)[nH]c3ccccc3c2=O)C(OC(C)=O)C1OC(C)=O` (centres undefined), the TGI in assay [1], in assay [3], in assay [4] and in assay [5] was over 100 µM each time.
`CC(C)(C)NC1C2CCC(C)(C1O)C2(C)C` (centres undefined): the TGI in assay [1], in assay [2], in assay [3] and in assay [5] was over 100 µM in each case.
For `Cc1nc(C)c(N2CCN(C#N)CC2)c(=O)[nH]1`, the TGI in assay [1], in assay [2], in assay [3], in assay [4] and in assay [5] was over 100 µM each time.
In the case of `CCOP(=O)(OCC)/C(C#N)=C/c1c(C)[nH]c2ccccc12`, the TGI in assay [1], in assay [2], in assay [3], in assay [4] and in assay [5] was over 100 µM each time.
Regarding `COc1cccc(-n2c(N)c(-c3nc4cc(C(F)(F)F)ccc4s3)c3ccc([N+](=O)[O-])cc3c2=O)c1`, the TGI in assay [1], in assay [2], in assay [3] and in assay [4] was over 100 µM throughout.
Take `COC(Cc1ccccc1)NC(C)=O` (centres undefined): the TGI in assay [1], in assay [2], in assay [3], in assay [4] and in assay [5] was over 100 µM throughout.
Take `Cc1cc(-c2nc3cc(F)c(F)cc3s2)ccc1N`: the TGI in assay [1], in assay [2], in assay [3], in assay [4] and in assay [5] was over 100 µM each time.
On to `N/N=C(\C(=O)Nc1ccc([N+](=O)[O-])cc1)C(C1=Nc2cc([N+](=O)[O-])ccc2NC1)[N+](=O)[O-]` (centres undefined), for which the TGI in assay [1], in assay [2], in assay [3], in assay [4] and in assay [5] was over 100 µM throughout.
Turning to `COc1c(O)cc(C(=O)O[C@@H]2Cc3c(O)cc(O)cc3O[C@@H]2c2cc(O)c(O)c(O)c2)cc1O`, the TGI in assay [1] is 39 µM; in assay [2] it was over 100 µM; in assay [3] it was 33.3 µM; in assay [4] it was 37.3 µM; in assay [5], 95.8 µM.
With `CC1(C)O[C@@H]2[C@@H]3OC(=O)C[C@@H]3[C@@H](COCc3ccccc3)[C@@H]2O1`, the TGI in assay [1], in assay [2], in assay [3], in assay [4] and in assay [5] was over 100 µM each time.
As for `CCCCCC(/C=N/N)C(O)(C(F)(F)F)C(F)(F)F` (centres undefined), the TGI in assay [1] was over 10 µM; in assay [2] it was 6.69 µM; in assay [3], over 10 µM; in assay [4] it was over 10 µM; in assay [5], over 10 µM.
Regarding `COc1cc(OC)nc(Nc2c(C#N)c3nc4ccccc4n3c3ccccc23)n1`, the TGI in assay [1] and in assay [3] was over 100 µM throughout.
For `CP(C)(=S)P(C)(C)=S`, the TGI in assay [2], in assay [4] and in assay [5] was over 100 µM in each case.
